Series [1] has as its system MEG-01S human megakaryocytes. The series can be described thus: A23187-inducible PGD2 production in PMA-differentiated MEG-01S (EIA). The class given is cell-based. To be noted: 0-100 µM, 30 min before 5 µM A23187 (Figure 3A). The method, then:
(§1) All bone marrow-derived macrophages (BMM) were obtained by culturing bone marrow cells from the femurs of 6 to 8 week old C57BL/6 male mice in RPMI 1640 medium (Invitrogen Life Technologies, Carlsbad, CA, USA) supplemented with 10 % Fetal calf serum (Invitrogen) 20 U/ml penicillin and 20 µg/ml streptomycin (Invitrogen), 2 mM L-glutamine (Glutamax-1, Invitrogen) in the presence of 10^4 U/ml (100 ng/mL) recombinant human CSF-1 (a gift from Chiron, Emeryville, CA) on bacteriological plastic plates for 7 days. The human megakaryocytic cell line MEG-01S was obtained from the American Type Culture Collection. MEG-01S were maintained in the same media as for BMM, supplemented with 1 mM Sodium Pyruvate (Invitrogen).
BMM were seeded overnight at 2 x 10^5 cells/ml in 24 well plates before treatment with compound at either 10 µM or 0.1 - 100 µM for 24 h in the presence or absence of lipopolysaccharide (LPS) from Salmonella Minnesota (Sigma-Aldrich) at a final concentration of 10 ng/ml. […] Supernatants were collected and samples were analysed for PGD2 using Prostaglandin D2 Mox Express EIA kits, PGE2 using Prostaglandin E2 Express EIA kits, the prostacyclin derivative 6-keto PGF1α using the 6-keto Prostaglandin F1α EIA Kit and the Thromboxane A2 derivative TXB2 using the Thromboxane B2 Express EIA kit (Cayman Chemical) according to the manufacturer's instructions. […]

The test system of series [2] is mouse primary bone marrow-derived macrophages (BMM). The experiment in a line: LPS-inducible PGE2, 6-keto PGF1α and TXB2 production from BMM (EIA), specificity. The class given is cell-based. To be noted: 24 h. The method, then: (§2) The human megakaryocytic cell line MEG-01S was obtained from the American Type Culture Collection. MEG-01S were maintained in the same media as for BMM, supplemented with 1 mM Sodium Pyruvate (Invitrogen).
(§3) BMM were seeded overnight at 2 x 10^5 cells/ml in 24 well plates before treatment with compound at either 10 µM or 0.1 - 100 µM for 24 h in the presence or absence of lipopolysaccharide (LPS) from Salmonella Minnesota (Sigma-Aldrich) at a final concentration of 10 ng/ml. MEG-01S were seeded at 2 x 10^5 cells/ml and stimulated with PMA (Phorbol 12-myristate 13-acetate) (Sigma-Aldrich) at a final concentration of 0.1 µM for 16 h.

Series [3] relates to BMM. The series can be described thus: BMM cell viability by MTT assay. The class given is cell-based, mouse. To be noted: at 10 µM or 100 µM, LPS, 24 h (Figure 1B). Here is the method: as §1
Known inhibitors 1 and 2, along with compound 3, were used to treat BMM at three doses (10, 30, 100 µM) in the presence of LPS for 24 h and cell viability was measured by MTT assay. BMM were seeded at 1 x 10^5 cells/well in 96 well plates and treated for 24 h with LPS (10 ng/ml) and compounds at 10, 30 and 100 µM. MEG-01S were PMA differentiated overnight before compounds were added for a further 24 h at 10, 30 and 100 µM. Cell viability was measured by MTT (Sigma-Aldrich) assay as described previously (Irvine, FASEB J, 2006).

In series [4] the test system is mouse primary bone marrow-derived macrophages (BMM). The series can be described thus: PGD2 production in LPS-activated BMM (EIA). It counts as cell-based. The method, then:
as §2, §3
The compound was tested with 10 µM of compound and LPS (10 ng/ml) for 24 h. […] (Student's t test).

Series [5] can be described thus: Rat pharmacokinetics, plasma concentration by LC-MS/MS after oral dose. It counts as in vivo, Sprague Dawley rats. Here is the method: Male adult Sprague Dawley rates (~165g) received a single oral bolus dose of 40mg/kg of compound 3 in a 0.5% methylcellulose/0.1% Tween80 by oral gavage. Rats were sacrificed when collecting blood and spleen samples just prior to dosing and at 0.5 hours, 2h, 8h and 24h (n=3 rats per time point), and the plasma concentration of compound 3 and the spleen PGD2 concentration was measured at each time point.
Blood samples were removed and kept cold at approximately 4°C immediately after collection to minimize degradation and centrifuged as soon as possible at approximately 4000 x g for 10 min. The plasma was transferred to a clean, pre-labelled polypropylene tube and frozen. Samples were stored at -20°C as soon as possible after collection to minimise degradation of the test item.
Plasma concentrations of 3 were determined using a screening LC-ms/ms method developed using the following parameters:
Samples were analysed alongside plasma standards. Concentration data were determined by back calculation from standard curve.

Values joined by “and” are separate entries in the source; they are usually repeats but may differ in a detail not shown here. Equal entries are not always repeated. Where two headings read alike, the source gives them in different places.

Usually EC50 stands for the concentration needed to bring the measured effect to its halfway point. `NC(=O)[C@H](Cc1ccccc1)NC(=O)c1ccc(-c2cccs2)nc1` [Compound 3, N-(1-amino-1-oxo-3-phenylpropan-2-yl)-6-(thiophen-2-yl)-nicotinamide]: in series [1], the “A23187-inducible PGD2 production” value is recorded as “inhibited A23187-inducible PGD2 production from PMA-differentiated MEG-01S human megakaryocytes dose-dependently”. Further, in series [2], the “concentration above which PGE2, 6-keto PGF1α and TXB2 inhibition was observed” value is reported as “above 10 µM”. Also, the “differential effect in inhibition of PGD2 versus PGE2, 6-keto PGF1α or TXB2 (selectivity)” value in series [2] (0-100 µM) is given as “striking selectivity”. For the same compound, the BMM viability entry in series [3] was “did not affect BMM viability”. In addition, in series [4] (BMM PGD2 production, compound 3 versus compound 1), the “EC50 fold better than that estimated for 1” value was about 30 fold. The “inhibition of PGD2 production” value in series [4] (BMM, LPS, 24 h, 0-100 µM (Figure 2A)) was “inhibited PGD2 production in the sub-micromolar range dose-dependently”. The PGD2 levels entry in series [4] (BMM, LPS, 24 h, at 1 µM) was “significantly inhibiting”. For the same compound, in series [4] (Mus musculus, Macrophage, BMM, LPS 10 ng/ml, 24 h, 0-100 µM compound, read-out: EC50 estimated for inhibition of PGD2 production), the concentration for a half-maximal effect (EC50) is about 290 nM. The “Concentration” value in series [5] (individual rat, 0.5 h after 40mg/kg oral gavage) is 263 ng/mL and 218 ng/mL; in series [5] (individual rat, 2 h after 40mg/kg oral gavage), 73.5 ng/mL and 107 ng/mL; in series [5] (individual rat, 8 h after 40mg/kg oral gavage) it was 17.3 ng/mL and 63.9 ng/mL and 51.8 ng/mL. The “Concentration (ng/mL)” value in series [5] (individual rat, 24 h after 40mg/kg oral gavage) is given as “BLOQ^2”. For the same compound, the concentration at 0.5 h in series [5] (male, Sprague Dawley, rat, plasma, oral, 40 mg/kg, 0.5 h after 40mg/kg oral gavage, N 3, read-out: Mean (± sem) Concentration) is 219 ± 24.8 ng/mL; in series [5] (male, Sprague Dawley, rat, plasma, oral, 40 mg/kg, individual rat, 0.5 h after 40mg/kg oral gavage, read-out: Concentration), 177 ng/mL. Also, the concentration at 2 h in series [5] (male, Sprague Dawley, rat, plasma, oral, 40 mg/kg, 2 h after 40mg/kg oral gavage, N 3, read-out: Mean (± sem) Concentration) stood at 91.8 ± 9.79 ng/mL; in series [5] (male, Sprague Dawley, rat, plasma, oral, 40 mg/kg, individual rat, 2 h after 40mg/kg oral gavage, read-out: Concentration), 94.8 ng/mL. Besides, the concentration at 8 h in series [5] (male, Sprague Dawley, rat, plasma, oral, 40 mg/kg, 8 h after 40mg/kg oral gavage, N 3, read-out: Mean (± sem) Concentration) was 44.3 ± 14 ng/mL. The concentration at 24 h in series [5] (male, Sprague Dawley, rat, plasma, oral, 40 mg/kg, 24 h after 40mg/kg oral gavage, N 3, BLOQ treated as 0.5 ng/mL, read-out: Mean (± sem) Concentration) stood at 0.677 ± 0.177 ng/mL; in series [5] (male, Sprague Dawley, rat, plasma, oral, 40 mg/kg, individual rat, 24 h after 40mg/kg oral gavage, read-out: Concentration), 1.03 ng/mL. Further, the oral bioavailability entry in series [5] (rat, 40mg/kg oral gavage) is on record as “orally bioavailable”. Moreover, the “presence in the serum” value in series [5] (rat, 8 hours post delivery, 40mg/kg oral) is listed as “present”.
